Data reported in US5081121A, “4(1H)-quinolone derivatives” (priority 1988, dated 1992).
Like-named read-outs stand apart in the source and are kept apart here.

Tested on: left atrial muscle
Assay: Test Method 1: enhancement of contracting force of left atrial muscle extirpated from a guinea pig (electrically stimulated at 1 Hz)
Assay type: cell-based
Settings: Krebs-Henseleit solution 32° C.; for EC20: read-out: EC20 (molar concentration for enhancing the left atrial muscle contracting force to the level of 20%); for EC50: read-out: EC50 (molar concentration for enhancing the left atrial muscle contracting force to the level of 50%); for EC100: read-out: EC100 (molar concentration for enhancing the left atrial muscle contracting force to the level of 100%)
Procedure: The drug according to the present invention was evaluated with reference to the physiological activities by means of a method using an atrial muscle extirpated from a guinea pig.
Male guinea pigs having a body weight of 300-500 g were made swooned by striking his head and were bleeded to death. The heart was extirpated and the right and left atrial muscles were cut off. The tops of each atrial muscle were fixed with cerrefines. The muscle was suspended into an organ-bath in which a Krebs-Henseleit solution (at 32° C.) was filled, and a 95% O2 -5% CO2 gas was flown through the bath. The left atrial muscle was stimulated electrically at a frequency of 1 Hz to stabilize the contracting force of the left atrial muscle. Then, the compounds according to the present invention represented by the general formulae were added to the organ-bath. As for the right atrial muscle, after the pulsation was stabilized, the compounds according to the present invention were added in the organ-bath in the same manner as described above.
The compounds according to the present invention represented by the aforementioned general formulae enhanced the left atrial muscle contracting force dependent on their concentrations. The drug concentrations for enhancing the left atrial muscle contracting force to the levels of 20%, 50% and 100%, respectively are listed in Table 2. EC20, EC50 and EC100 indicate the molar concentration for enhancing the left atrial muscle contracting force to the levels of 20%, 50% and 100%, respectively. The enhancing rates of the pulsation of the right atrial muscle are also listed within parentheses. The minus values in parentheses indicate that the pulsation of the right atrial muscle is decreased.
As a control drug, theophylline ([…].

| SMILES | EC20 (Cavia porcellus) [µM] | EC50 (Cavia porcellus) [µM] | EC100 (Cavia porcellus) [µM] | EC20 (molar concentration for enhancing the left atrial muscle contracting force to the level of 20%) [µM] | EC100 (molar concentration for enhancing the left atrial muscle contracting force to the level of 100%) [µM] | EC50 [µM] |
| --- | --- | --- | --- | --- | --- | --- |
| CCn1ccc(=O)c2c(O)ccc(C)c21 [Compound 61, 1-ethyl-5-hydroxy-8-methyl-4(1H)-quinolone] | < 100 | 107 |  |  |  |  |
| CCn1cc(C(=O)N2CCN(c3ccccc3OC)CC2)c(=O)c2cc(C)ccc21 [Compound 108, 1-ethyl-3-{1-[4-(2-methoxyphenyl)piperazinyl]carbonyl}-6-methyl-4(1H)-quinolone] | 44.2 | 126 |  |  |  |  |
| CCOC(=O)c1c[nH]c2c(S(=O)(=O)c3ccccc3)cccc2c1=O [Compound 83, 3-ethoxycarbonyl-8-phenylsulfonyl-4(1H)-quinolone] | 19.5 | 363 |  |  |  |  |
| CC(=O)c1cccc2c(=O)cc[nH]c12 [Compound 44, 8-acetyl-4(1H)-quinolone] | < 100 | 136 | 776 |  |  |  |
| CCOc1ccc2c(c1)c(=O)ccn2CC [Compound 74, 6-ethoxy-1-ethyl-4(1H)-quinolone] | < 100 | 108 | 546 |  |  |  |
| COCOc1cc2[nH]ccc(=O)c2cc1OC [Compound 56, 6-methoxy-7-methoxymethoxy-4(1H)-quinolone] | 114 | 405 |  |  |  |  |
| CCOC(=O)c1c[nH]c2c(OC)cc(OCC)cc2c1=O [Compound 76, 6-ethoxy-3-ethoxycarbonyl-8-methoxy-4(1H)-quinolone] | 38.9 | 73.3 | 305 |  |  |  |
| CCCCn1ccc(=O)c2cc(OC)c(OCC)cc21 [Compound 68, 1-n-butyl-7-ethoxy-6-methoxy-4(1H)-quinolone] | 2.82 | 19.5 |  |  |  |  |
| C/C=C/Cc1c(O)c(OC)cc2c(=O)cc[nH]c12 [Compound 72, 8-(2-trans-butenyl)-7-hydroxy-6-methoxy-4(1H)-quinolone] |  |  |  | 35.5 | 211 | 63.1 |
| CCOc1cc2c(=O)c(C(=O)O)cn(CC)c2c(C)c1C [Compound 88, 3-carboxyl-7,8-dimethyl-6-ethoxy-1-ethyl-4(1H)-quinolone] | < 100 | 202 | 856 |  |  |  |
| CCOc1cc2c(=O)cc(C3CC3)[nH]c2cc1OC [Compound 119, 2-cyclopropyl-6-ethoxy-7-methoxy-4(1H)-quinolone] | 37.6 | 84.1 |  |  |  |  |
| CCOc1cc2[nH]ccc(=O)c2cc1OCC [Compound 10, 6,7-diethoxy-4(1H)-quinolone] | 1.88 | 19.3 | 116 |  |  |  |
| CCOCCOC(=O)c1c[nH]c2c(OC)ccc(OCC)c2c1=O [Compound 79, 5-ethoxy-3-[(2-ethoxy)ethoxycarbonyl]-8-methoxy-4(1H)-quinolone] | < 100 | 135 | 680 |  |  |  |
| CCOc1cc2c(=O)cc[nH]c2cc1OC [Compound 48, 6-ethoxy-7-methoxy-4(1H)-quinolone] | 12.6 | 106 | 646 |  |  |  |
| N#CCc1ccc2[nH]ccc(=O)c2c1 [Compound 45, 6-cyanomethyl-4(1H)-quinolone] | < 100 | 274 | 510 |  |  |  |
| CCn1ccc(=O)c2ccc(C)cc21 [Compound 57, 1-ethyl-7-methyl-4(1H)-quinolone] | < 100 | 248 |  |  |  |  |
| CCn1ccc(=S)c2cc3c(cc21)OCO3 [Compound 63] | 42.2 | 112 |  |  |  |  |
| COc1cc2[nH]cc(C(=O)N3CCC(c4ccccc4)CC3)c(=O)c2cc1OC [Compound 105, 6,7-dimethoxy-3-(4-phenylpiperidinyl)carbonyl-4(1H)-quinolone] | < 100 | 221 |  |  |  |  |
| CCOc1cc2c(cc1OC)c(=O)ccn2CC(C)C [Compound 69, 1-i-butyl-7-ethoxy-6-methoxy-4(1H)-quinolone] | 4.32 | 462 |  |  |  |  |
| Cc1cc(Cl)cc2c(=O)cc[nH]c12 [Compound 71, 6-chloro-8-methyl-4(1H)-quinolone] | 12.3 | 54.3 |  |  |  |  |
| CCn1cc(C(=O)O)c(=O)c2c(C)cccc21 [Compound 87, 3-carboxyl-1-ethyl-5-methyl-4(1H)-quinolone] | < 100 | 327 |  |  |  |  |

| SMILES | EC20 (Cavia porcellus) [µM] | EC50 (Cavia porcellus) [µM] | EC100 (Cavia porcellus) [µM] | EC20 (molar concentration for enhancing the left atrial muscle contracting force to the level of 20%) [µM] | EC100 (molar concentration for enhancing the left atrial muscle contracting force to the level of 100%) [µM] | EC50 [µM] |
| --- | --- | --- | --- | --- | --- | --- |
| CCOc1cc(OC)cc2c(=O)cc[nH]c12 [Compound 47, 8-ethoxy-6-methoxy-4(1H)-quinolone] | < 100 | < 100 | 200 |  |  |  |
| C=CCc1cccc2c(=O)cc[nH]c12 [Compound 70, 8-(2-propenyl)-4(1H)-quinolone] | < 100 | 159 |  |  |  |  |
| CCn1cc(C(=O)N2CCN(c3ccc([N+](=O)[O-])cc3)CC2)c(=O)c2cc(OC)c(OC)cc21 [Compound 110, 6,7-dimethoxy-1-ethyl-3-{1-[4-(4-nitrophenyl)piperazinyl]carbonyl}-4(1H)-quinolone] | 105 | 178 |  |  |  |  |
| CCn1ccc(=O)c2cc(OC)ccc21 [Compound 73, 1-ethyl-6-methoxy-4(1H)-quinolone] | < 100 | 115 | 241 |  |  |  |
| O=c1cc[nH]c2cc(N3CCNCC3)ccc12 [Compound 67, 7-piperazinyl-4(1H)-quinolone] | 46.8 | 211 | 944 |  |  |  |
| CCCn1cc(C(=O)O)c(=O)c2cc(OC)c(OCC)cc21 [Compound 93, 3-carboxyl-7-ethoxy-6-methoxy-1-n-propyl-4(1H)-quinolone] | 376 | 465 |  |  |  |  |
| CCn1cc(C(=O)O)c(=O)c2cc(C)ccc21 [Compound 90, 3-carboxyl-1-ethyl-6-methyl-4(1H)-quinolone] | 181 | 345 | 394 |  |  |  |
| COc1cc2c(=O)c(C(=O)O)cn(C)c2c(C)c1C [Compound 89, 3-carboxyl-6-methoxy-1,7,8-trimethyl-4(1H)-quinolone] | < 100 | 657 |  |  |  |  |
| CCOC(=O)c1cn(CC)c2c(C)ccc(OC(C)=O)c2c1=O [Compound 82, 5-acetoxy-3-ethoxycarbonyl-1-ethyl-8-methyl-4(1H)-quinolone] | < 100 | 168 |  |  |  |  |
| COCCOc1cc2[nH]ccc(=O)c2cc1OC [Compound 55, 6-methoxy-7-(2-methoxy)ethoxy-4(1H)-quinolone] | 132 | 394 |  |  |  |  |
| O=c1cc[nH]c2ccc(CCO)cc12 [Compound 64, 6-(2-hydroxy)ethyl-4(1H)-quinolone] | 157 | 234 | 495 |  |  |  |
| COc1cc2[nH]c(-c3ccco3)cc(=O)c2cc1OC [Compound 94, 6,7-dimethoxy-2-(2-furyl)-4(1H)-quinolone] | < 100 | < 100 | 417 |  |  |  |
| COc1cc2[nH]ccc(=O)c2cc1OC [Compound 6, 6,7-dimethoxy-4(1H)-quinolone] | 10 | 35.5 | 234 |  |  |  |
| CCOC(=O)c1cn(CC)c2c(OC)cc(OCC)cc2c1=O [Compound 77, 6-ethoxy-3-ethoxycarbonyl-1-ethyl-8-methoxy-4(1H)-quinolone] | 4.73 | 50.1 |  |  |  |  |
| O=c1cc(C2CC2)[nH]c2ccccc12 [Compound 96, 2-cyclopropyl-4(1H)-quinolone] | 123 | 374 |  |  |  |  |
| COc1ccc(C)c2c(=O)c(C(=O)N3CCC(c4ccccc4)CC3)c[nH]c12 [Compound 106, 8-methoxy-5-methyl-3-(4-phenylpiperidinyl)carbonyl-4(1H)-quinolone] | 102 | 245 | 447 |  |  |  |
| C=CCOc1cc2[nH]ccc(=O)c2cc1OC [Compound 53, 7-allyloxy-6-methoxy-4(1H)-quinolone] | < 100 | 117 | 240 |  |  |  |
| CCn1ccc(=O)c2cc3c(cc21)OCO3 [Compound 60, 1-ethyl-6,7-methylenedioxy-4(1H)-quinolone] | < 100 | 279 |  |  |  |  |
| CCOC(=O)c1ccc2[nH]ccc(=O)c2c1 [Compound 65, 6-ethoxycarbonyl-4(1H)-quinolone] | < 100 | 345 |  |  |  |  |
| CCCCOc1cc2[nH]c(C3CC3)cc(=O)c2cc1OC [Compound 115, 7-n-butoxy-2-cyclopropyl-6-methoxy-4(1H)-quinolone] | 15.3 | 81.3 | 202 |  |  |  |
| COc1cc(SC)c2[nH]ccc(=O)c2c1 [Compound 30, 6-methoxy-8-methylsufenyl-4(1H)-quinolone] | 6.92 | 78.5 | 881 |  |  |  |
